Measurements as given in patent US20260265055A1, “Sulfine-Based Compounds for Generating Hydrogen Persulfide” (Brown University, priority 2023, published 2026).

Key:
[1] = SSP4 fluorescence assay to determine generation of H2S2 in buffer
Description: To further evaluate the specificity of TTS in converting H2S to H2S2, SSP4 was used to monitor the formation of H2S2 in this reaction and the results were compared with a series of controls. Details of the SSP4 experiments are provided later herein. SSP4 is a well-established fluorescent sensor for sulfane sulfurs including H2S2. See Shieh, M. et al., Shining a light on SSP4: a comprehensive analysis and biological applications for the detection of sulfane sulfurs. Redox Biol. 2022, 56, 102433. […] Without wishing to be bound by scientific theory, it is believed that thiols would compete with SSP4 to react with H2S2, thereby causing decreased signals.
SSP4 was dissolved in DMSO to obtain a 200 μM stock solution. CTAB was dissolved in ethanol to yield a 2 mM stock solution. TTS and TT were dissolved in DMSO to make 1 mM stock solutions. Na2S, Na2S2, and L-cysteine were prepared in MilliQ H2O to obtain stock solutions at 2 mM, 1 mM, and 4 mM, respectively. 50 mM PBS buffer was added to individual wells of a black polystyrene, flat-bottomed clear 96-well plate, followed by TTS (25 μM) or TT (25 μM), and Na2S (50 μM), cysteine (100 μM), or Na2S2 (25 μM). For the interference assay, TTS or TT (25 μM) were added to wells with or without Na2S (50 μM). Samples were mixed by pipetting up and down and incubated in the dark at room temperature (rt) for 30 min. Next, CTAB (50 μM) was added to all wells followed by SSP4 (5 μM), and samples were mixed by pipetting up and down. The final volume was 200 μL in each well. Samples were then incubated in the dark at room temperature for another 30 min before being measured on a Molecular Devices SpectraMax iD3 Multi-Mode Microplate Reader (emission 525 nm; excitation 485 nm; integration time […], low PMT sensitivity, attenuation 1, read height 1.00 mm).

HeLa cells = experiment: Live cell imaging of H2S2 formation with SSP4; assay type: cell-based; conditions: 30 min
Protocol: HeLa cells were seeded at ~7000 cells/well in a 96-well clear flat-bottomed BioLite plate (ThermoFisher Scientific, #130188) in DMEM/F12 (1:1) (Gibco, Invitrogen, #11330-032) medium supplemented with 10% fetal bovine serum (FBS) at 37° C., 5% CO2 overnight.
Preparation before cell treatment: Na2S and Na2S2 stocks were prepared at 10 mM in sterile 1×PBS. TTS and TT were prepared at 10 mM concentrations in DMSO. They were then diluted to 50 μM concentrations in serum-free Fluorobrite DMEM in individual Eppendorf tubes (0.5% DMSO). Na2S (final concentration=100 μM) was added to the Eppendorf tube containing Fluorobrite DMEM and TTS or TT immediately before being added to the cells. Compounds were mixed by pipetting up and down prior to cell addition.
Cell treatment: Culturing media was aspirated from all wells, and cells were washed twice with 1×PBS. Compounds were added to cells (200 μL/well) and incubated for 30 min at 37° C., 5% CO2. While cells were incubating, SSP4 treatment was prepared by first adding 5 mM CTAB in ethanol to Fluorobrite DMEM followed by 6.125 mM SSP4 in DMSO to final concentrations of 100 μM and 5 μM, respectively, in a tube. The final volume was 5 mL (0.08% DMSO). Compounds were mixed by pipetting up and down prior to cell addition. After incubation, media was aspirated, and cells were washed twice with 1×PBS. SSP4 treatment was added to all wells (100 μL/well), and cells were incubated for 30 min at 37° C., 5% CO2 for 30 min. Media was then aspirated, and cells were washed three times with 1×PBS. Fluorobrite DMEM was added to all wells before imaging on the Keyence All-in-One Fluorescence Microscope (BZ-X810) (excitation: 470/40 nm; emission: 525/50 nm).
As shown in FIGS. 4(A)-(D), HeLa cells were treated with TTS, TTS+H2S, or TT for 30 min before the fluorescent sensor SSP4 was applied to the cells to monitor the formation of H2S2. […] Na2S2 was used as the positive control in this study (FIG. 4D). Other control studies including TT+H2S, H2S only, and SSP4 only were also performed. […] FIG. 4H is a graph of fluorescence intensities of SSP4 staining. Data are mean values ±SEM calculated using ImageJ. (n=9, where three different images were obtained from each of three samples and quantified).

## COC(=O)c1ccc(=S=O)sc1 [TTS, 2H-thiopyran-2-thione sulfine]
[1]; 25 μM TTS + 50 μM Na2S + 200 μM Cys or 1 mM GSH
  SSP4 fluorescence in interference experiments with thiols: decreased but still significant fluorescence
[1]; 25 μM compound + 50 μM Na2S (H2S), PBS, SSP4 5 μM
  SSP4 fluorescence response (H2S2 formation): significant fluorescence response
[1]; 25 μM compound + 100 μM Cys, SSP4 5 μM
  SSP4 fluorescence response (sulfane sulfur formation): No fluorescence
[1]; 25 μM compound only, SSP4 5 μM
  SSP4 fluorescence response (H2S2 formation): No fluorescence
HeLa cells; compound 50 μM + Na2S 100 μM
  SSP4 fluorescence in HeLa cells: Significant green fluorescence
HeLa cells; compound only
  SSP4 fluorescence in HeLa cells: did not show obvious fluorescence
